Like-named read-outs stand apart in the source and are kept apart here.
Legend:
[1] = target: T1, USP7-Q351S (Homo sapiens, UniProt Q93009, Q351S); experiment: Ub-AMC enzymatic assay, USP7-Q351S mutant; type: biochemical; settings: 6-hr pre-incubation
T1 construct: made in house
Procedure: (§1) Full length USP7 was tested for its activity in Ubiquitin-AMC assay in presence or absence of inhibitors. USP7 (5 nM) was pre-incubated for 6 hours at room temperature with different concentrations of inhibitors or DMSO as a control in 50 mM HEPES pH 7.5, 0.5 mM EDTA, 11 uM ovalbumin, and 5 mM DTT. Ubiquitin-AMC (Boston Biochem) was then added to a final concentration of 500 nM. The initial rate of the reaction was measured by collecting fluorescence data at one minute intervals over 30-minute period using a Clariostar fluorescence plate reader at excitation and emission wavelength of 345 and 445 nm respectively. The calculated initial rate values were plotted against inhibitor concentrations to determine IC50s. All the experimental data were plotted using Prism GraphPad. All assays for each compound were performed at least twice for each compound.

[2] = test system: Ewing Sarcoma, AML, multiple myeloma and rhabdoid cell lines; experiment: Cell viability (CellTiter-Glo) in individual cell line panels; type: cell-based
Procedure: Cells were plated in 384-well culture-treated plates and allowed to settle overnight. After drug treament and appropriate incubation time, cell viability was assessed using the CellTiter-Glo Luminescent Cell Viability Assay (Promega). Luminescence was read on a Fluostar Omega Reader (BMG Labtech).

[3] = target: T2, full-length USP7 (Homo sapiens, UniProt Q93009); experiment: Ub-AMC enzymatic assay, full-length USP7, 6 h pre-incubation; type: biochemical
T2 construct: The constructs encoding USP7 full length (amino acids 1–1102) and catalytic domain (208–560); inferred from Ni-NTA purification; made in house; host or cells: E. coli BL21 (DE3)
T2 sequence (Q93009 whole entry, the tested form may be a part): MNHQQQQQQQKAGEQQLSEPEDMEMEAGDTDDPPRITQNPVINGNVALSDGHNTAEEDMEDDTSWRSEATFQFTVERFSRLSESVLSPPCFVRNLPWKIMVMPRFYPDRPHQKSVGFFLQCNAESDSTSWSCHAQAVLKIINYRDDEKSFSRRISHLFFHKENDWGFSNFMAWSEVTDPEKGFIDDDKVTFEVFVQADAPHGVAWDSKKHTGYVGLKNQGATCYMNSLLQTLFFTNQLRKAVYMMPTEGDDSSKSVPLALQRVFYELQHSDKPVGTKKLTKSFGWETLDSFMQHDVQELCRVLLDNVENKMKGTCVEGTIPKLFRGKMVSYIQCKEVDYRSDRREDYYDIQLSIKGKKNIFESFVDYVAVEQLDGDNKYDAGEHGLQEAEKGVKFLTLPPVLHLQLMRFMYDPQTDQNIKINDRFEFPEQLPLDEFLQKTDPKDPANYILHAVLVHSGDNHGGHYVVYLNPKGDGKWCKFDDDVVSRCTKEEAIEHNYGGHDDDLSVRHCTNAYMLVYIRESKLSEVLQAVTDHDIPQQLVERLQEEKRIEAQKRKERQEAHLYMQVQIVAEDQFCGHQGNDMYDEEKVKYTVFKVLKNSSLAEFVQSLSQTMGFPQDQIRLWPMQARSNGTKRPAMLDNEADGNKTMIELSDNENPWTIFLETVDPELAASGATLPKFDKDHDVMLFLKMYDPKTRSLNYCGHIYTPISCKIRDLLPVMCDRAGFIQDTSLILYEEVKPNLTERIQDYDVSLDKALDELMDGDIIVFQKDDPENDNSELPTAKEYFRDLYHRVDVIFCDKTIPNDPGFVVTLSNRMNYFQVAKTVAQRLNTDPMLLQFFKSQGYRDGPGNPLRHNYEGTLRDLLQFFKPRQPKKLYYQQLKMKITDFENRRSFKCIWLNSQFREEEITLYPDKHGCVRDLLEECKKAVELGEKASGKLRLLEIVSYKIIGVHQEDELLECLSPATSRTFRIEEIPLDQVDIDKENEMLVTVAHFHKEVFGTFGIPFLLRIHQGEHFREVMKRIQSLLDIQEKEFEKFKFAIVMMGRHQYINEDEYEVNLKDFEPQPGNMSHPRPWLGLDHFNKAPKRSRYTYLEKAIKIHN
Procedure: as §1

[4] = target: T3, RPS19 (Homo sapiens, UniProt P39019); experiment: XL177A-DTB chemoproteomic profiling with XL177A competition, RPS19; type: binding; settings: RPS19 reporter ion intensity
T3 construct: endogenous in cells; host or cells: HEK 293AD lysate
Procedure: HEK 293AD cells were lysed as described above, and the lysate was cleared by centrifugation. Samples were diluted to 10 mg/mL, and 200 μL lysate (2 mg protein total) was incubated with the indicated concentrations of XL177A for 4 hours at RT, then 2 μM of WH114A for 4 additional hours. SDS was added to a final concentration of 1.2% (27.2 μL of a 10% stock), and denatured by heating to 80 °C for 5 minutes. After cooling to RT, 1125 μL 1X PBS was added to dilute the final SDS concentration to 0.2%. 50 μL streptavidin agarose slurry was added to each sample, followed by incubation at RT for 3 hours. After streptavidin enrichment, samples were washed vigorously (2×0.2% SDS, 3x PBS, 3x ddH2O). After the final wash, all supernatant was removed using a flat-bottom tip, and the resin was flash frozen and stored at −80 °C until workup for TMT labeling.
To remove rapigest, recovered supernatants were acidified with 10% TFA, incubated at 37 °C for 45 minutes, and centrifuged at 14,000 rpm for 15 minutes at 4 °C. Peptides were then desalted by C18, and dried by vacuum centrifugation. Dried peptides were reconstituted in 50 mM pH8.0 TEAB and labeled with TMT reagent at RT for 1 hour. TMT reactions were pooled and treated with hydroxylamine according to the manufacturer’s instructions. Peptide mixtures were then dried, reconstituted in 50 mM ammonium bicarbonate and desalted by SP3[53]. Eluted peptides were then analyzed by nanoflow LC-MS/MS as described[64] with a NanoAcquity UPLC system (Waters, Milford, MA) interfaced to a QExactive HF mass spectrometer (Thermofisher Scientific, San Jose, CA). TMT labeled peptides were injected onto a precolumn (4 cm POROS 10R2, Applied Biosystems, Framingham, MA), resolved on an analytical column (30 µm I.D. × 50 cm packed with 5 µm Monitor C18) and introduced to the mass spectrometer by ESI (spray voltage = 3.5 kV, flow rate ~30 nL/min). The mass spectrometer was operated in data dependent mode such that the 15 most abundant ions in each MS scan (m/z 300–2000, 120 K resolution, target = 3E6, lock mass for 445.120025 enabled) were subjected to MS/MS (m/z 100–2000, 30 K resolution, target = 1E5, max fill time = 100 ms). Dynamic exclusion was selected with a repeat count of 1 and an exclusion time of 30 seconds. MS/MS data was extracted to.mgf using mulitplierz scripts[54],[55] and searched against a forward-reverse human NCBI refseq database using Mascot version 2.6. Search parameters specified fixed carbamidomethylation of cysteine, fixed N-terminal and lysine TMT labelling, and variable oxidation (methionine). Additional multiplierz scripts were used to filter results to 1% FDR and derive protein-level aggregate reporter ion intensities using peptides mapping uniquely into the genome.

[5] = test system: HDM2-p53 signaling axis; experiment: Whole cell lysate Western blots of MCF7 cells (HDM2, p53, p21); type: cell-based
[6] = test system: MCF7 cells; experiment: Cell cycle analysis by propidium iodide staining; type: cell-based; settings: 1 μM, 24 hours
Procedure: For propidium iodide (PI) staining, treated cells (~1 million per condition) were washed with cold PBS, then fixed in 80% ethanol overnight at −20 °C. After fixing, cells were pelleted, washed with PBS, and reconstituted in 500 μL FxCycle PI / RNAse A staining solution (Thermo Fisher). Cells were stored overnight at 4 °C and analyzed using a BD Fortessa flow cytometer.

[7] = test system: panel of 41 recombinant DUBs; experiment: In vitro DUB profiling (Ubiquigent, Ub-Rho), other DUBs of the panel; type: biochemical; settings: 1 µM, 15-minute pre-treatment
Procedure: Compounds were screened using the Ubiquigent Drug Profiler SPT system (www.ubiquigent.com/drug-discovery-services/dubprofiler/). Each of 41 purified DUBs was incubated with compound for 15 minutes, then ubiquitin rhodamine 110 (Ub-Rho) was added and percent inhibition determined based on fluorescence relative to a DMSO control.

[8] = XL177A-DTB pulldown, HEK293AD lysate pre-treated 100nM XL177A
[9] = XL177A-DTB pulldown, HEK293AD lysate pre-treated 1uM XL177A
[10] = XL177A-DTB pulldown, HEK293AD lysate pre-treated 10uM XL177A
[11] = average of Run 1 and Run 2, 100nM XL177A
[12] = average of Run 1 and Run 2, 1uM XL177A
[13] = average of Run 1 and Run 2, 10uM XL177A

T1 sequence (Q93009 whole entry Q351S): as the sequence (Q93009 whole entry, the tested form may be a part) above, with Q351S counted along it

CN1CCN(CCC(=O)Nc2ccc3c(=O)n(CC4(O)CCN(C(=O)[C@@H](CCCNC(=O)c5ccc6c(Cl)c7c(nc6c5)CCCC7)Cc5ccccc5)CC4)cnc3c2)CC1 [XL177A]
IC50 [1]: 189 nM | TP53-WT cell lines sensitive [2]: 9 out of 10 | TP53-mutant cell lines sensitive [2]: 1 out of 17 | IC50 ([3]; read-out: potency as irreversible inhibitor of USP7): 0.34 nM | Run 1 100nM 1 [4, 8]: 201720 | Run 1 100nM 2 [4, 8]: 193904 | Run 1 100nM 3 [4, 8]: 198261 | Run 2 100nM 1 [4, 8]: 185482 | Run 2 100nM 2 [4, 8]: 186116 | Run 2 100nM 3 [4, 8]: 181339 | Run 1 1uM 1 [4, 9]: 206285 | Run 1 1uM 2 [4, 9]: 969196 | Run 1 1uM 3 [4, 9]: 327663 | Run 2 1uM 1 [4, 9]: 160877 | Run 2 1uM 2 [4, 9]: 741636 | Run 2 1uM 3 [4, 9]: 244076 | Run 1 10uM 1 [4, 10]: 152789 | Run 1 10uM 2 [4, 10]: 213160 | Run 2 10uM 1 [4, 10]: 210280 | Run 2 10uM 2 [4, 10]: 197443 | AVE 100nM 1 [4, 11]: 193601 | AVE 100nM 2 [4, 11]: 190010 | AVE 100nM 3 [4, 11]: 189800 | AVE 1uM 1 [4, 12]: 183581 | AVE 1uM 2 [4, 12]: 855416 | AVE 1uM 3 [4, 12]: 285870 | AVE 10uM 1 [4, 13]: 181534 | AVE 10uM 2 [4, 13]: 205302 | p53 and p21 protein levels [5]: increases in p53 and downstream p21 protein levels | time to degradation of HDM2 [5]: ≤ 2 h | cell cycle effect [6]: complete G1 arrest | activity against any other DUBs [7]: did not exhibit significant activity

CN1CCN(CCC(=O)Nc2ccc3c(=O)n(CC4(O)CCN(C(=O)[C@H](CCCNC(=O)c5ccc6c(Cl)c7c(nc6c5)CCCC7)Cc5ccccc5)CC4)cnc3c2)CC1 [XL177B]
less potent than XL177A in the cell lines tested [2]: ~ 100 fold | IC50 ([3]; Ub-AMC, 6-hour pre-treatment, read-out: IC50): 340 nM | effects on HDM2-p53 signaling and cell cycle ([5]; negative control): did not exert any of the same effects except at 10 μM
